Measured values published in a melting point compilation (Tetko et al.; mined from patent text by program, amines drawn as free bases though some values may be those of a salt).

Compound | melting point [°C]
C=Cc1cnc2c(NC(=O)c3c(Cl)cccc3Cl)cccc2c1Cn1ccnc1 | 189 to 191
C=CCOC(=O)c1c(C)nc2c(cnn2CCC(=C)C)c1N | 68 to 69
N=C(Nc1cc(Cl)cc(NC(=O)/C=C/c2ccccc2Cl)c1)c1cccs1 | 123 to 124
C=CCc1cc(O)c(CC=C)c(C=NO)c1O | 241 to 243
Cc1nc(N2CCC(N(C)C)CC2)c2nc(-c3ccccc3)cc-2[nH]1 | 262 to 263
CCCCc1nc2ccccn2c(=O)c1-c1ccc(NC(=O)[C@@H]2CCCN2C(=O)OC(C)(C)C)cc1 | 179 to 187
Cc1cc(-n2ccc(OCc3ccc(C(F)(F)F)cc3)cc2=O)sc1C(=O)NCc1ccccc1 | 225 to 227
Nc1nc2c(cnn2CCc2ccccc2)c2nc(-c3ccco3)nn12 | 225 to 226
COC(=O)c1ccc(-c2nn(Cc3ccccc3)c3ccc([N+](=O)[O-])cc23)o1 | 134 to 135
Nc1cccc(-n2c(=O)c(CCC(O)c3ccncc3)cc3cccnc32)c1 (centres undefined) | 209 to 211
CCCCOC(=O)c1nc(Cl)c2cc(OC(C)C)ccc2c1O | 60 to 62
CCCCCCCCOc1cc2cc(CO)c(CO)c(-c3ccnc(NN)c3)c2cc1OC | 98 to 102
CCCCOCCOc1ccc(-c2ccc(N3CCC(COC(C)=O)C3)c(C=C(C)C(=O)O)c2)cc1 (centres undefined) | 110 to 111
COC(=O)COc1cccc2c(CNS(=O)(=O)CCOc3ccccc3)coc12 | 83 to 84
CCCNCC(O)c1ccc(F)cc1 (centres undefined) | 58.6 to 78.8
CCN(CC)CCNC(=O)c1cc(Cl)c(N)cc1OCCCCSC | 101 to 103
CCOC(=O)N1CCC(Nc2nc3cncnc3n2Cc2ccccc2)CC1 | 157
O=C(Nc1ccc(Oc2ccccc2)cc1)N1CCN(c2ccnc3cc(Cl)ccc23)CC1 | 159 to 161
CCOC(=O)/C=C/c1cccc(C(=O)c2ccc(C(F)(F)F)cc2)n1 | 66 to 68
CC(=O)C1=C(O)C(C(=O)C=Cc2ccc(C)cc2)C(=O)OC1=O (centres undefined) | 188 to 190

Compound | melting point [°C]
CC(=O)NNC1=Nc2sc(Cl)cc2C(c2c(F)cccc2F)=NC1 | 257 to 260
COc1cc(C)cc(Sc2cccc(F)c2C#N)c1 | 94 to 95
CCC(=O)c1c(O)c(CNC(C)=O)cc2c1CCCC2 | 136 to 140
CCCc1ccc2nc(S(=O)(=O)CC)c(S(N)(=O)=O)n2n1 | 232 to 233
CN1CC(Cl)CC2c3cccc4[nH]cc(c34)CC21 (centres undefined) | 195 to 197
Cc1ccc2ccc3c(c2c1)C(C)(C)C(=O)O3 | 88 to 89
Cc1cc(NCCNCC(O)COc2ccccc2)c2ccccc2n1 (centres undefined) | 151 to 152
Cc1[nH]cnc1CSCCNC(=O)NCCCCN(C)CCC(c1ccc(Cl)cc1)c1ccccn1 (centres undefined) | 97 to 98
C(=CCN(Cc1ccccc1)Cc1ccccc1)CN(Cc1ccccc1)Cc1ccccc1 | 114 to 115
CCC(O)(CCC(N)=O)c1ccc(Cl)c(Cl)c1 (centres undefined) | 106 to 107
NC(=O)c1nc(-c2ccccc2)[nH]c1N | 300
COc1cc(-c2nc(NCCC(=O)O)c3c(C)c(C#N)sc3n2)cc(OC)c1OC | 222 to 225
CC(=O)n1ncc2cc(C)c([N+](=O)[O-])cc21 | 180 to 182
Cc1ccc(C)c(NC(=S)N2CCC(c3nc(C4=NOC(c5ccccc5)C4)cs3)CC2)c1 (centres undefined) | 120 to 123
C=C1CC(C)(O)CCC2=C(C)CCC12 (centres undefined) | 54
Cc1ccc(CC(=O)NC(NC(=NC#N)Nc2cccnc2C)C(C)(C)C)cc1F (centres undefined) | 75 to 77
CC1CN(c2c(F)cc3c(=O)c(C(=O)O)cn(C4CC4)c3c2C#N)CCN1 (centres undefined) | > 300
COc1ccc2c(c1)c(-c1cc3c(C(=O)O)ccnc3[nH]1)cn2C | > 300
Cc1cc(C)cc(-c2cnn3c(-c4cccc(-c5nnn(Cc6ccccn6)n5)c4)ccnc23)c1 | 77
